Like-named read-outs stand apart in the source and are kept apart here.
How the values were obtained:
[1] = tested on: GYKI-20039-induced tremor; experiment: GYKI-20039-induced tremor test on mice; assay type: in vivo, mice (male CFLP); settings: for ED50: Mus musculus
Description: After administration of the test substance the mice were suspended on an isometric dynamometer in a light plastic box and the strength of the tremor was measured and quantified by electronic integration. The tremor strength of mice was averaged in the 4th-5th minutes following the treatment with 10 the test substance.
The animals were pretreated with various doses of the muscle relaxants to be tested before administration of the test substance. The time of pretreatment was 0 in intravenous examinations, whereas a pretreatment time of 10 minutes was used in oral investigations.
(§1) For the verification of the oral activity the tremor test was used on mice whereas the flexor reflex was investigated by using intraduodenal (i.d.) administration.

Straub's tail = Straub's tail test (morphine hydrochloride) on mice; assay type: in vivo, mice (male OF-1); settings: for ED50: Mus musculus, ip, read-out: Straub's tail ED50 i.p.
Description: Method 2: Straub's tail test
The method of Novack [Drug Development Res. 2, 383 (1982)] was used with some modification. Groups consisting of 10 male OF-1 mice each weighing 19 to 21 g were intraperitoneally treated with 60 mg/kg of morphine hydrochloride. The formation (development) of Straub's stail was judged by 15 minutes after the morphine treatment. It was considered to be positive when the animal permanently kept his tail upwards in an angle being steeper than 45°. A pretreatment was carried out with various doses of the compound to be tested by 20 minutes before the time of reading. The ED50 value, i.e. the dose inhibiting the positive response in 50% of the animals, was calculated by using the method of Litchfield and Wilcoxon.
(The above author found a good correlation between the effectivity shown in this test method and the clinical effect of central muscle relaxants.)

flexor reflex = experiment: Flexor reflex on anaesthetized cats; assay type: in vivo
Description: Method 3: Flexor reflex on anaesthetized cats
Chloralose-anaesthetized cats of both sexes weighing 2.2 to 5.4 kg each were used in these experiments. The flexor reflex of the animals was assessed by using the quantitative electromyographic method of Farkas et al. [Pharmacol. Res. Comm. 20, Suppl. 1, 141 (1988)].
[…] For characterization of duration of the effect the time (T75%) is shown, which passed after administration of this dose up to the return to 75% of the control value.
as §1

[2] = Acute toxicity and therapeutic ratio on mice; assay type: in vivo; settings: mouse, in vivo; for selectivity ratio: mice, LD50 to tremor ED50
Description: (§2) Method 4: Study on the acute toxicity
(§3) These experiments were carried out on groups consisting of 10 male and 10 female mice each weighing 19 to 21 g. For the determination of the intravenous toxicity the substances to be tested were dissolved in 10 ml/kg of body-weight of physiological saline and injected to the tail vein of CFLP mice during 1 minute. For evaluation of the oral toxicity the substances to be tested were dissolved in 10 ml/kg of body-weight of physiological saline and introduced to the stomach of OF-1 mice by using a rigid gastric tube. The perishing ratio of the animals was evaluated by 48 hours following the administration of the substance to be tested. The LD50 value, i.e. the dose causing the death of 50% of the animals was calculated by using the method of Litchfield and Wilcoxon. The therapeutic (safety) ratio was determined as the ratio of the LD50 value to ED50 value shown in the GYKI-20039-induced tremor test.

[3] = tested on: GYKI-20039-induced tremor; settings: mice; literature (Coward et al.; Andrasi et al.); cited from earlier work
mice = experiment: Acute toxicity and therapeutic ratio on mice; assay type: in vivo; settings: mice, i.v. and oral
Description: as §2, §3

[4] = iv, pretreatment time 0, Table 1, read-out: GYKI-20039 (tremor) ED50 i.v.
[5] = 10 mg/kg i.v., time up to return to 75% of control
[6] = iv, Table 3, read-out: Muscle relaxant effect, Tremor ED50 i.v.
[7] = po, Table 3, read-out: Muscle relaxant effect, Tremor ED50 p.o.
[8] = po, pretreatment 10 minutes, Table 2, read-out: Tremor test ED50 p.o.
[9] = mice, i.p., 60 mg/kg morphine hydrochloride, Table 1
[10] = iv, CFLP mice, i.v., read-out: Acute toxicity LD50 i.v.
[11] = iv, i.v., read-out: Therapeutic ratio LD50/ED50 i.v.
[12] = po, OF-1 mice, p.o., read-out: Acute toxicity LD50 p.o.
[13] = po, p.o., read-out: Therapeutic ratio LD50/ED50 p.o.

In the case of N=C1SCCN1c1c(Cl)cccc1Cl [GYKI-20039, reference compound], the induction of tremor [1] is reported as “induces a tremor on mice”.

For C[Si](C)(CCCN1CCCC1)Cc1ccc(F)cc1.Cl [Example 11, N-{[dimethyl-(4-fluorobenzyl)silyl]propyl}pyrrolidine hydrochloride], the ED50 [1, 4] was 3.8 mg/kg, the ED50 (Straub's tail) was 27.5 mg/kg and the “Flexor reflex, duration of effect T75%” value (flexor reflex; [5]) was over 180 min.

With Cc1ccc(C(=O)C(C)CN2CCCCC2)cc1 (centres unmarked) [Tolperisone, tolperisone, reference compound] the ED50 [1, 6] was 10.1 mg/kg, the ED50 [1, 7] was 338 mg/kg and the ED50 [1, 8] was 338 mg/kg. The ED50 (Straub's tail; [9]) was 63 mg/kg, the “Flexor reflex, duration of effect T75%” value (flexor reflex; [5]) was 50 min and the “Flexor reflex, T75%” value (flexor reflex; 25 mg/kg i.d.) was 60 min. For the same compound, the “Flexor reflex, maximum inhibition” value (flexor reflex; 25 mg/kg i.d.) was 33.1%, the “Flexor reflex, T75%” value (flexor reflex; 50 mg/kg i.d.) was 140 min and the “Flexor reflex, maximum inhibition” value (flexor reflex; 50 mg/kg i.d.) was 76.6%. It also gave an LD50 at 48 h [2, 10] of 39.8 mg/kg, a selectivity ratio [2, 11] of 3.9 and an LD50 at 48 h [2, 12] of 612 mg/kg. It also gave a selectivity ratio [2, 13] of 1.8.

For Cc1ccc(Cl)c(C[Si](C)(C)CN2CCCCC2)c1.Cl [Example 35, N-{[(2-chloro-5-methylbenzyl)-dimethylsilyl]methyl}piperidine hydrochlorid], the ED50 [1, 4] was 3.7 mg/kg, the ED50 (Straub's tail) was 25.9 mg/kg and the “Flexor reflex, duration of effect T75%” value (flexor reflex; [5]) was over 180 min.

With C[Si](C)(Cc1ccc(F)cc1)CN1CCCC1.Cl [Example 10, N-{[dimethyl-(4-fluorobenzyl)silyl]methyl}-pyrrolidine hydrochloride] the ED50 [1, 4] was 2.8 mg/kg, the ED50 (Straub's tail) was 22 mg/kg and the “Flexor reflex, duration of effect T75%” value (flexor reflex; [5]) was over 180 min.

In the case of C[Si](C)(CCCN1CCCCC1)Cc1ccccc1.Cl [Example 19, N -[(benzyldimethylsilyl)propyl]piperidine hydrochloride], the ED50 [1, 4] is reported as 3.6 mg/kg, the ED50 (Straub's tail) is reported as 22.3 mg/kg and the “Flexor reflex, duration of effect T75%” value (flexor reflex; [5]) is reported as over 180 min.

In the case of Cl.N=C(Cc1c(Cl)cccc1Cl)NC(N)=O [LON-954], the induction of tremor [3] is listed as “induces a tremor on mice”.

With C[Si](C)(CCCn1ccnc1)Cc1ccc(F)cc1.Cl [Example 12, N-{[dimethyl-(4-fluorobenzyl)silyl]propyl}imidazole hydrochloride] the ED50 [1, 4] was 5.4 mg/kg, the ED50 (Straub's tail) was 26.9 mg/kg and the “inhibition of flexor reflex” value (flexor reflex; 10 mg/kg i.v.) was 40%. The “Flexor reflex, duration of effect T75%” value (flexor reflex; [5]) was over 180 min.

In the case of C[Si](C)(Cc1ccc(F)cc1)CN1CCCCC1.Cl [Example 2, N-{[dimethyl-(4-fluorobenzyl)silyl]methyl}piperidine hydrochloride], the ED50 [1, 6] is reported as 2.8 mg/kg, the ED50 [1, 4] is reported as 2.8 mg/kg and the ED50 [1, 7] is reported as 27.6 mg/kg. The ED50 [1, 8] was 27.6 mg/kg, the “activity relative to eperisone” value ([1]; oral route) was 5 times and the “activity relative to tolperisone” value ([1]; oral route) was 10 times. The ED50 (Straub's tail) was 21.8 mg/kg, the “Flexor reflex, duration of effect T75%” value (flexor reflex; [5]) was over 180 min and the “Flexor reflex, T75%” value (flexor reflex; 12.5 mg/kg i.d.) was 230 min. The “Flexor reflex, maximum inhibition” value (flexor reflex; 12.5 mg/kg i.d.) was 44.8%, the “Flexor reflex, T75%” value (flexor reflex; 25 mg/kg i.d.) was over 300 min and the “Flexor reflex, maximum inhibition” value (flexor reflex; 25 mg/kg i.d.) was 82.1%. The “duration of effect compared with 4-fold doses of the reference drugs” value (flexor reflex; i.d.) was “exceeded even the duration of effect of 4-fold doses of the reference drugs”, the “dose needed to achieve a given effect relative to the dose of the reference drugs” value (flexor reflex; i.d., vs tolperisone and eperisone) was “half of the dose” and the LD50 at 48 h [2, 10] was 25.5 mg/kg. The selectivity ratio [2, 11] was 9.1, the LD50 at 48 h [2, 12] was 228 mg/kg and the selectivity ratio [2, 13] was 8.3. For the same compound, the “therapeutic ratio in comparison to the reference drugs” value (mice) was “significantly more advantageous”.

For CCc1ccc(C(=O)C(C)CN2CCCCC2)cc1 (centres unmarked) [Eperisone, eperisone, reference compound], the ED50 [1, 6] was 7.8 mg/kg, the ED50 [1, 4] was 7.8 mg/kg and the ED50 [1, 7] was 126 mg/kg. For the same compound, the ED50 [1, 8] was 126 mg/kg, the ED50 (Straub's tail; [9]) was 63.6 mg/kg and the “Flexor reflex, duration of effect T75%” value (flexor reflex; [5]) was 90 min. The “Flexor reflex, T75%” value (flexor reflex; 25 mg/kg i.d.) was 60 min, the “Flexor reflex, maximum inhibition” value (flexor reflex; 25 mg/kg i.d.) was 38.5% and the “Flexor reflex, T75%” value (flexor reflex; 50 mg/kg i.d.) was 190 min. The “Flexor reflex, maximum inhibition” value (flexor reflex; 50 mg/kg i.d.) was 74.8%, the LD50 at 48 h [2, 10] was 53.4 mg/kg and the selectivity ratio [2, 11] was 6.8. It also gave an LD50 at 48 h [2, 12] of 320 mg/kg and a selectivity ratio [2, 13] of 2.5.

For Cc1ccc(C[Si](C)(C)N2CCCCC2)c(C)c1.Cl [Example 34], the “GYKI-20039 (tremor) ED50 i.v.” value ([1]; i.v., pretreatment time 0, Table 1) was 8.7 mg/kg, the “Straub's tail ED50 i.p.” value (Straub's tail; [9]) was 30.7 mg/kg and the “Flexor reflex, duration of effect T75%” value (flexor reflex; i.v., 5 mg/kg (footnote *)) was 120 min. The “inhibition of flexor reflex” value (flexor reflex; i.v., 5 mg/kg (footnote *)) was 53%.

— patent US5340823A, “Organosilane derivatives, pharmaceutical compositions containing them and process for preparing same” (Richter Gedeon Vegyeszeti Gyar RT., priority 1990, dated 1994)
